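Compound exposure: 48 hours, 5 concentrations, 96-well plates. TGI denotes the concentration required for complete inhibition of growth.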
Legend:
Assay in all cases: NCI-60 cell line screen, 48 h
[1] = system: A498 renal
[2] = system: BT-549 breast
[3] = system: CAKI-1 renal
[4] = system: HCC-2998 colon
[5] = system: HCT-116 colon
[6] = system: HS 578T breast
[7] = system: LOX IMVI melanoma
[8] = system: MCF7 breast
[9] = system: MDA-MB-435
[10] = system: NCI-H23 lung
[11] = system: OVCAR-3 ovarian
[12] = system: OVCAR-4 ovarian
[13] = system: OVCAR-5 ovarian
[14] = system: SN12C renal
[15] = system: SNB-19 CNS
[16] = system: UACC-257 melanoma

| Compound | TGI [1] | TGI [2] | TGI [3] | TGI [4] | TGI [5] | TGI [6] | TGI [7] | TGI [8] | TGI [9] | TGI [10] | TGI [11] | TGI [12] | TGI [13] | TGI [14] | TGI [15] | TGI [16] |
| --- | --- | --- | --- | --- | --- | --- | --- | --- | --- | --- | --- | --- | --- | --- | --- | --- |
| COC(C)(C)CCc1[nH]c2ccccc2c1CC(=O)NCCc1cncn1C | > 100 µM | > 100 µM | > 100 µM | > 100 µM | > 100 µM | > 100 µM | > 100 µM | > 100 µM | > 100 µM | > 100 µM | > 100 µM | > 100 µM | > 100 µM | > 100 µM | > 100 µM | > 100 µM |
| C=C1C(=O)O[C@H]2[C@H]3O[C@@H](C[C@@H]12)[C@@]1(C)CC[C@H](O1)C(C)=CCC[C@H]3C | 3.15 µM | 2.07 µM | 2.56 µM | 3.25 µM | 4.29 µM | 8.95 µM | 2.89 µM | 3.63 µM | 2.92 µM | 2.96 µM | 2.7 µM | 3.27 µM | 11.5 µM | 4.05 µM | 19 µM | 3.59 µM |
| CN(CCCN(C)CCc1ccc(Cl)c(Cl)c1)CCCN1CCCC1 | 3.37 µM | 19 µM | 6.33 µM | 0.82 µM | 4.11 µM | 4.31 µM | 3.54 µM | 3.69 µM | 1.42 µM | 14.3 µM | 14.8 µM | 20.5 µM | 15.1 µM | 11.8 µM | 13.7 µM | 3.46 µM |
